Reference: patent US10343991B2, “C5, C6 substituted and/or fused oxindoles as anti-cancer agents and process for preparation thereof” (Council of Scientific & Industrial Research, priority 2016, dated 2019)

What was measured:
THP1 cells [1] = assay: Trypan blue assay, cell viability; format: cell-based; conditions: Homo sapiens, THP-1, 48 h, average of three experiments
Experimental: (§1) In order to determine the anticancer potency, the synthesized oxindole derivatives were evaluated for anti-cancer activity various different human cancer cell lines, Leukemic Cancer (THP1), human breast cancer (MDA-MB-231 and MCF-7), human cervix carcinoma cells (HeLa), prostate cancer (DU-145) cellS by using standard Trypan blue and SRB assays. The preliminary anticancer activity for all the synthesized compounds was done at 10 μM concentration and cell inhibition was determined. […] The experiment was repeated thrice and the average values were taken.
The assay was carried out in a 24 well flat-bottomed microtiter tissue culture plate. THP1 cells were seeded in the plates with a density of 4×10^4 cells/well (counted by tryphan blue exclusion dye method). Compounds were added to obtain a concentration of 10 μM. Sunitinib was used as positive control. Plates were incubated for 48 h at 37° C. in a humidified incubator with 5% CO2. At the end of the treatments, cells (THP1) were resuspended in 0.4% trypan blue and percent cell viability was counted using countess cell chamber (Life Technologies).

THP1 cells [2] = format: cell-based, human; conditions: THP-1 cells, 10 μM, 24 h; untreated cells 68.3%
Experimental: To understand the anticancer activity mechanism of the synthesized oxindole derivatives, we analysed the cell cycle alteration phase distribution of the cells by treating THP1 cells with oxindole derivatives at 10 μM, for 24 h and analyzed by flow cytometry. Treatment of THP-1 cells with compounds 2b, 3d, 3e, 3g, 3h, 3i, 3j and 3k caused an accumulation of 98.5%, 94.3%, 96.7%, 97%, 98%, 83%, 93.5%, 98.1% cells in the G0/G1 phase respectively as compared to 68.3% in untreated cells and 99.5% in Sunitinib treated cells. […] (Fig. x and Table .y).
The THP1 cells were treated with the active compounds at […] and incubated for about 24 h. The cells were fixed in ice cold ethanol solvent at 4° C. for about 30 minutes. The ethanol was removed and cells were treated with 1 mL of DNA staining solution (2 mg of RNase and 0.2 mg of propidium iodide (PI)) for 30 minutes. The DNA content was measured by flow cytometry (BD FACS C anto II). Results were analysed using FCS express 4 plus software.

DU-145 cells = assay: SRB assay, cell viability; format: cell-based; conditions: Homo sapiens, 48 h, average of three experiments, read-out: DU145 Cell Viability at 10 μM
Experimental: as §1
(§2) The assay was carried out in a 24 well flat-bottomed microtiter tissue culture plate. Cells were seeded in the plates with a density of 4×10^4 cells/well (counted by tryphan blue exclusion dye method). After 24 hours media was replaced with fresh media and then compounds were added to obtain a concentrations of 10 μM. Sunitinib was used as positive control. Plates were incubated for 48 h at 37° C. in a humidified incubator with 5% CO2. After 48 hours without removing the cell culture supernatant, 500 μl of cold 10% (wt/vol) TCA was added to each well, and the plates were incubated at 4° C. for 1 h. The plates were washed for four times with water then rinsed with water several times to remove TCA, serum, proteins and excess water was removed using paper towels and air dried. 100 μl of 0.4% (wt/vol in 1% acetic acid) SRB solution was added to each well. Plates were left at room temperature for 30 min and then the plates were quickly rinsed for four times with 1% (vol/vol) acetic acid to remove unbound dye were and then air dried until no moisture was visible. 100 μl of 10 mM Tris base solution (pH 10.5) was added to each well and shake for 5 min to solubilize the protein-bound dye. Optical density was measured at 564 nm in a micro plate reader.

MCF-7 cells = assay: SRB assay, cell viability; format: cell-based; conditions: Homo sapiens, MCF7, 48 h, average of three experiments
Experimental: as §1, §2

HeLa cells = assay: SRB assay, cell viability; format: cell-based; conditions: Homo sapiens, 48 h, average of three experiments
Experimental: as §1, §2

MDA-MB-231 cells = assay: SRB assay, cell viability; format: cell-based; conditions: Homo sapiens, 48 h, average of three experiments
Experimental: as §1, §2

[3] = test system: VEGF tyrosin kinase (VEGFR); assay: VEGFR activity, phosphotyrosine (PY) cell-based ELISA; conditions: 10 μM, 60 min pretreatment, VEGF stimulation
Experimental: Briefly, cells at 60-75% confluence were placed in serum-free medium for 18 h to reduce the background of phosphorylation. Cells were then pretreated for 60 min with 2b, 3d, 3e, 3g, 3h, 3i, 3j and 3k compounds at 10 μM concentration followed by an optimized dose of purified growth factor (VEGF). The reaction was stopped, and cells were permeabilized by quickly removing the media from the cells and adding ice-cold Tris-buffered saline (TBS) containing 0.05% triton X-100, protease inhibitor cocktail, and tyrosine phosphatase inhibitor cocktail (both from Sigma Chemical). The TBS solution was then removed, and cells were fixed to the plate by heat and further incubation in 70% ethanol. Cells were further exposed to block (TBS with 1% BSA) and washed, and then a horseradish peroxidase (HRP)-conjugated phosphotyrosine antibody was added. The antibody was removed; cells were washed again and exposed to an enhanced luminol ELISA substrate, and light emission was measured using a plate reader. The known RTK-specific kinase inhibitor (Sunitinib) was used as positive control for kinase inhibition.

melting point [°C]	Structure (SMILES)	viability at 10 µM (THP1 cells [1]) [%]	accumulation of cells in the G0/G1 phase (THP1 cells [2]) [%]	viability at 10 µM (DU-145 cells) [%]	viability at 10 µM (MCF-7 cells) [%]	viability at 10 µM (HeLa cells) [%]	viability at 10 µM (MDA-MB-231 cells) [%]	inhibitory activity of VEGF tyrosin kinase activity [3]
165 to 168	Cc1ccsc1/C=C1\C(=O)Nc2cc3oc(Cc4ccccc4)c(-c4ccccc4)c3cc21 [Compound 3i, (Z)-2-benzyl-5-((3-methylthiophen-2-yl)methylene)-3-phenyl-5H-furo[3,2-f]indol-6(7H)-one]	41.2	83	52	31.4	42.6	43.2	inhibitory activity
186 to 188	Cc1cc(C)c(/C=C2\C(=O)Nc3cc4oc(Cc5ccccc5)c(-c5ccccc5)c4cc32)[nH]1 [Compound 3h, (Z)-2-benzyl-5-((3,5-dimethyl-1H-pyrrol-2-yl)methylene)-3-phenyl-5H-furo[3,2-f]indol-6(7H)-one]	36.2	98	58.6	40.5	40.3	41.3	inhibitory activity
